Measured values taken from patent publication US20130072459A1, “PHARMACEUTICAL COMPOSITION FOR THE PREVENTION OR THE TREATMENT OF NON-ALCOHOLIC FATTY LIVER DISEASE AND THE METHOD FOR PREVENTION OR TREATMENT OF NON-ALCOHOLIC FATTY LIVER DISEASE USING THE SAME” (priority 2010, published 2013).

Test system: high fat diet-induced simple steatosis
Experiment: Therapeutic effects on high fat diet-induced simple steatosis in rats
Format: in vivo, Wistar rats
Description: 6-week old male rats (Wistar rats) were stabilized and then divided into 2 groups. Animal groups were respectively given a standard diet containing 10% fat (trade name: D12450B, manufactured by Research Diets) and a high fat diet containing 60% fat (trade name: D12492, manufactured by Research Diets) for 24 weeks. […] In order to supply 10 mg/kg which is a daily target dose of tartrate of Compound 1, a diet was formulated by mixing a high fat diet and 0.03% by weight of tartrate of Compound 1. 24 weeks after a supply of each diet, animals were divided into a high fat diet-fed group (n=8), a group fed with a high fat diet+0.03% by weight of tartrate of Compound 1 (n=8), and a standard diet-fed group (n=8), followed by feeding for another 14 weeks. Then, animals were dissected and sera were separated. Then, serum ALT levels (alanine aminotransferase), GPT, (glutamic pyruvate transaminase) were measured using a blood analyzer (FIG. 4). The excised liver was homogenized in a 5(v/v) % Triton-X solution, and a triglyceride working reagent [which was prepared by mixing a free glycerol reagent (F6428, Sigma) and a triglyceride reagent (T2449, Sigma) in a ratio of 4:1(v/v)] was added thereto, followed by measurement of an absorbance at 540 nm to determine the content of triglyceride (FIG. 5). In addition, in order to observe histological fat distribution, a portion of the excised liver was fixed in a 10(v/v) % formalin solution and then a tissue sample was prepared, followed by hematoxylin & eosin(HE) staining and photographing using an image analysis program (computerized image analysis) (FIG. 6, the violet-stained portion represents a normal liver tissue, and white portion represents lipid droplets). Thereafter, an area of lipid droplets/unit area of a sample was calculated (FIG. 7).

[1] = high fat diet + 0.03% drug for 14 weeks, vs high fat diet-fed group

CC(C)(C)OC[C@@H]1C(=O)NCCN1C(=O)C[C@H](N)Cc1cc(F)c(F)cc1F [tartrate of Compound 1, (R)-4-[(R)-3-amino-4-(2,4,5-trifluorophenyl)-butanoyl]-3-(t-butoxymethyl)piperazin-2-one]
significant decrease: serum alanine aminotransferase (ALT), result in words (high fat diet 24 weeks then high fat diet + 0.03% drug (target 10 mg/kg/day) for 14 weeks) | hepatic triglyceride content in hepatic triglyceride analysis, result in words [1] | hepatic triglyceride content in histological analysis (area of lipid droplets/unit area), result in words [1]
